Results: PMC10701869, “Anti-Xanthine Oxidase 5′-Hydroxyhericenes A–D from the Edible Mushroom Hericium erinaceus and Structure Revision of 3-[2,3-Dihydroxy-4-(hydroxymethyl)tetrahydrofuran-1-yl]-pyridine-4,5-diol” (ACS Omega, 2023)
Counter-ions that a name gives are not always drawn.

What was measured:
T47D = assay: cells; design: species or system MDA-MB-231, MRC-5; MTT cell viability, growth inhibition versus DMSO control, n = 4; details: Homo sapiens, 48 h
Method: (§1) Cytotoxicity assays were evaluated against the following cell lines: T-47D ATCC, HTB-133 (hormone-dependent breast cancer), and MRC-5 ATCC, CCL171 (normal embryonic lung) from the American Type Culture Collection (ATCC, Manassas, VA) as well as MDA-MB-231 ((hormone-independent breast cancer) from M.D. Anderson Cancer Center, Houston, TX). […] The cutoff concentration is 50 μg mL^–1. Cell viability was determined using the MTT assay. […] The selectivity index between the T47D cancer cell line and the MRC-5 normal cell line is 13.5. […] In addition, this compound was previously reported to be noncytotoxic to MCF-7 cancer cell line.[36] This means that the growth inhibitory effect of hericerin depends on the types of breast cancer cell. T47D, MDA-MB-231, and MCF-7 are popular models in breast cancer studies. The T47D and MCF-7 are hormone-dependent breast cancer cells, but MDA-MB-231 is a hormone-independent breast cancer cell. […] Thus, hericerin (13) may be a good candidate to develop an anticancer agent against progesterone-sensitive breast cancer cells. Moreover, hericerin was reported to inhibit the growth of A549, SK-OV-3, SK-MEL-2, HCT-15, and HL-60 cancer cell lines.[10],[38] To determine the possible mechanism, we performed an apoptosis assay. First, T47D and MDA-MB-231 breast cancer cells were exposed to compound 13 for 48 h, and the abundance of two apoptotic markers, namely, PARP and procaspase 3, was determined by Western blot.

in vitro = assay: in vitro; design: species or system T47D, MDA-MB-231; MTT cell viability, growth inhibition versus DMSO control, n = 4; details: human, mrc-5 cells; read-out: MRC-5 IC50
Method: as §1, with “To determine the possible mechanism, we performed an apoptosis assay.” left out

xanthine oxidase = target: T1, xanthine oxidase (Bos taurus, UniProt P80457); assay: biochemical; design: xanthine oxidase inhibition (IXO assay), dose-response, n = 3
T1 construct: gene XDH
T1 sequence (P80457 2-1332): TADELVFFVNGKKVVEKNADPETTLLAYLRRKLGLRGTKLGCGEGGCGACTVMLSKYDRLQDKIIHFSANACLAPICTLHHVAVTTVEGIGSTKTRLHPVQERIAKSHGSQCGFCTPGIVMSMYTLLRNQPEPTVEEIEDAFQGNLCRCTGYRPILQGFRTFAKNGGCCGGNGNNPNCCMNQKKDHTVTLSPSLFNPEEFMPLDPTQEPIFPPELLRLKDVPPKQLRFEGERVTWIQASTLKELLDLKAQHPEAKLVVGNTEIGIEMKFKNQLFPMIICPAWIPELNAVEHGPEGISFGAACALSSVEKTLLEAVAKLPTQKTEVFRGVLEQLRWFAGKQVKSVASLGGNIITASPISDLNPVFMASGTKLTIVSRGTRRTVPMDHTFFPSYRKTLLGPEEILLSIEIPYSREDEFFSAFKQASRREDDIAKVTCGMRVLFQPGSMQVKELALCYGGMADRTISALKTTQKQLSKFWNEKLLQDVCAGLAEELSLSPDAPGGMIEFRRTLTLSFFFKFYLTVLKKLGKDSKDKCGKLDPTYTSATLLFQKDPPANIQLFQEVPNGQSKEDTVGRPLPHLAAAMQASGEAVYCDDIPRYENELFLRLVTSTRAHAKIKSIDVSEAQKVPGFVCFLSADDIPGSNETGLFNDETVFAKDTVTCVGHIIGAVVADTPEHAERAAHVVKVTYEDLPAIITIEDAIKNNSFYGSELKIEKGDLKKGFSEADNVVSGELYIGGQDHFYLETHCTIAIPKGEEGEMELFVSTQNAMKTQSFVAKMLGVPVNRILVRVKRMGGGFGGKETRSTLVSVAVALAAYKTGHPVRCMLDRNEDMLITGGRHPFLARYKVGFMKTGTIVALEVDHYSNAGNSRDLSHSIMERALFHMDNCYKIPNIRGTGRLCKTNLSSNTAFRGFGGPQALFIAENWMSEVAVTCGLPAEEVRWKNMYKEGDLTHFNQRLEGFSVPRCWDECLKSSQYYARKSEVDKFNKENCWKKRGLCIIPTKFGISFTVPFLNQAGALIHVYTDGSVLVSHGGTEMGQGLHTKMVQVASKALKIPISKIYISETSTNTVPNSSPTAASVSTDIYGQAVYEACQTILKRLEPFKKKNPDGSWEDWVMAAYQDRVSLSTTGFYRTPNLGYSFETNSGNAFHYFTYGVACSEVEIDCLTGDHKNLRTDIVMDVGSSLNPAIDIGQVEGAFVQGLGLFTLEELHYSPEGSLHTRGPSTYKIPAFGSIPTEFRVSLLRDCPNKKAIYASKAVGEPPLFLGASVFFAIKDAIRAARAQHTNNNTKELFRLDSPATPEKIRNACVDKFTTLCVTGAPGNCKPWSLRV
Method: The assays were evaluated against DPPH (diphenyl picrylhydracyl radical), XXO (reactive oxygen species generated by xanthine oxidase), and IXO (inhibition of xanthine oxidase). DMSO was used as a solvent and a negative control. […] The cutoff concentration is 100 μg mL^–1 for DPPH and 200 μg mL^–1 for XXO and IXO.

MDA-MB-231 = assay: cells; design: species or system T47D, MRC-5; MTT cell viability, growth inhibition versus DMSO control, n = 4; details: Homo sapiens, MDA-MB-231, 48 h
Method: as §1, with “To determine the possible mechanism, we performed an apoptosis assay.” left out

inhibition at 200 µg/mL (xanthine oxidase) [%] | SMILES | IC50 (T47D) [µM] | CC50 at 48 h (in vitro) [µM] | inhibition at 50 µg/mL (T47D) [%] | inhibition at 50 µg/mL (MDA-MB-231) [%] | IC50 (MDA-MB-231) [µM]
 | COc1cccc2c1C(=O)c1c(O)c3c(c(O)c1C2=O)C[C@@](O)(C(=O)CO)C[C@@H]3O[C@H]1C[C@H](N)[C@H](O)[C@H](C)O1 [Doxorubicin·HCl, Doxorubicin hydrochloride] | 0.69 ± 0.03 | 2.75 ± 0.21 |  |  | 
27 ± 7.9 | Nc1ncnc2c1ncn2[C@@H]1O[C@H](CO)[C@@H](O)[C@H]1O [compound 6, adenosine] |  |  | 2.3 ± 2.9 | 2.5 ± 5 | 
43.3 ± 5 | COc1cc2c(c(O)c1C/C=C(\C)CCC=C(C)C)C(=O)N(CCc1ccccc1)C2 [compound 13, hericerin] | 5.9 ± 1.6 | 79.6 ± 13.7 |  |  | 57.5 ± 5.4
